Measured values taken from patent publication US8241607B2, “Use of fructose-based compounds for the diagnosis of cancer” (priority 2005, dated 2012).

What was measured:
[1] = test system: GLUT-5 mRNA; test: Quantitative real-time RT-PCR of GLUT-5 mRNA in MCF-7 cells; type: cell-based
Procedure: FIG. 10 depicts GLUT-5 expression levels in accordance with an embodiment of the present invention. MCF-7 breast cancer cells were incubated in 2 mM glucose (Glu), 5.5 mM glucose (Glu) or 5.5 mM fructose (Fru) for 4 or 24 hours, after which GLUT-5 expression was quantified using real-time RT-PCR, normalized to GAPDH levels, and expressed as fold-increase compared to GLUT-5 levels detected in MCF-7 cells cultured in 2 mM glucose for a similar time period.
Cellular fructose uptake is facilitated by a member of solute carrier family 2, called glucose transporter type 5 (GLUT-5). Following incubation of MCF-7 breast cancer cells in 2 mM, 5.5 mM glucose or 5.5 mM fructose for […], total RNA was harvested, and analyzed by quantitative real-time RT-PCR analysis using GLUT-5 specific primers to quantify GLUT-5 mRNA expression. GLUT-5 expression was normalized to GAPGH mRNA expression, and expressed as fold-change in comparison to control breast cancer cells incubated in 2 mM glucose for 4, and 24 hours.

[2] = test system: PANC-1 cells; test: [1,2-13C2] stable isotope-based dynamic metabolic profiling in PANC-1 cells; type: cell-based; conditions: 72 h
Procedure: FIG. 28 depicts the metabolism of fructose and glucose in pancreatic cancer cells in accordance with an embodiment of the present invention. Lactate generation from glycolysis (a), and hexose oxidation in the pentose and tricarboxylic acid cycles (b) following treatment of PANC-1 cells with 2 mM glucose, 5.5 mM glucose, and 5.5 mM fructose for 72 h. […] In (b), the ^13C to ^12C ratio in the CO2 released from the PANC-1 cells is presented.
FIG. 29 depicts fatty acid synthesis from glucose versus fructose in accordance with an embodiment of the present invention. Fatty acid synthesis represented by (a), ^13C-labelled oleate, (b) ^13C-labelled arachidic acid, and (c) ^13C-labelled 24-carbon fatty acid fraction following treatment of PANC-1 cells with 2 mM, and 5.5 mM glucose, and 5.5 mM fructose for 72 h. For the fatty acids, the fraction of ^13C-labeled oleate, arachidic acid or 24-carbon fatty acid is expressed as percentage of total oleate, arachidic acid or 24-carbon fatty acids, respectively.
FIG. 30 depicts ribose and deoxyribose synthesis following glucose and fructose treatment in accordance with an embodiment of the present invention.
Metabolism comprises anabolic (converting small molecules into big ones) and catabolic processes (converting food into useful energy), predicts the functional state of a cell, and analyzes the levels of the end products (metabolites) of anabolism and catabolism. Metabolic profiling using stable isotope tracer technology ([1,2-^13C] sugars) allows the measurement of the changing pattern of distribution of ^13C carbons from [1,2-^13C] glucose in intracellular metabolic intermediates, and provides a simultaneous measure of carbon flow toward the pentose cycle, glycolysis, direct glucose oxidation, tricarboxylic acid (TCA) cycle and fatty acid synthesis (76,77). […] The inventors employed [1,2-^13C2] glucose, or [1,2-^13C2] fructose stable isotope-based dynamic metabolic profiling (SiDMAP, Los Angeles, US) to track and quantify changes in glucose, and fructose carbon re-distribution among major metabolic pathways in pancreatic cancer cells (Lee W N, Boros L G, Puigjaner J, Bassilian S, Lim S, Cascante M. Mass istopomer study of transketolase-transaldolase pathways of the pentose cycle with [1,2-^13C2]glucose. Am J Physiol 274:E843-51, 1998; Lee W N, Byerley L O, Bassilian S, Ajie H O, Clark I, Edmond J. Isotopomer study of lipogenesis in human hepatoma cells in culture: contribution of carbon and hydrogen atoms from glucose. Anal Biochem 226: 100-112). The principles of this methodology are outlined below in a series of schematics (FIGS. 25-27) illustrating how this technique tracked carbohydrate metabolism and the data generated. […]

[3] = test system: primary pancreatic cancers; test: BRDU uptake in primary cultures of surgically resected pancreatic cancers; type: cell-based, human; conditions: all 5 primary pancreatic cancers; 5.5 mM fructose compared to 5.5 mM glucose, 72 h
Procedure: FIG. 18 depicts BRDU incorporation by pancreatic cells in accordance with an embodiment of the present invention. Freshly resected pancreatic cancers were mechanically and enzymatically dispersed, and cells were pre-incubated in 2 mM glucose prior to treatment with 5.5 mM glucose or fructose for 72 h. BRDU (10 μM) was added to the medium at 48 h, and BRDU-uptake quantified at 72 h.
As immortalized cell-lines, such as PANC-1 pancreatic cancer cells, can become dedifferentiated after repeated passages, and in order to translate these findings in the PANC-1 cells to patients with pancreatic cancer, the inventors also examined proliferative rates in primary cultures of fresh surgically resected pancreatic cancers, following incubation in 2 mM, and 5.5 mM glucose or 5.5 mM fructose. Briefly, after mechanical and enzymatic (trypsin and DNAse) disaggregation, aliquots of tumor cells were seeded in 6-well plates, and incubated in standard DMEM media with 10% fetal bovine serum, and 2 mM glucose, 5.5 mM glucose, or 5.5 mM fructose for 72 h. As before in the PANC-1 experiments, BRDU (10 μM) was added in the […] of incubation in the sugars, following which BRDU-uptake was quantified.

SMILES: O=C(CO)[C@@H](O)[C@H](O)[C@H](O)CO [fructose]
- increase in GLUT-5 expression ([1]; 5.5 mM fructose compared to 5.5 mM glucose, 24 hour incubation): two-fold increase
- change in GLUT-5 mRNA expression ([1]; 5.5 mM glucose or 5 mM fructose, 4 hours, vs 2 mM glucose): no significant change
- route of metabolism in the pentose phosphate shunt ([2]; 5.5 mM 13C-labeled sugar): preferentially metabolized by TKK
- fraction metabolized for fatty acid synthesis (FAS) ([2]; 13C-labeled fructose vs glucose): comparatively less
- CO2 production, fructose in comparison to glucose ([2]; 13C-labeled sugar): 34 fold lower
- lactate production, fructose in comparison to glucose ([2]; 13C-labeled sugar): 34 fold lower
- proliferative rates (BRDU-uptake) [3]: higher proliferative rates
